Several values for one entry are separate records, joined by “and”; a condition that tells them apart may be missing. Equal entries are not always repeated. Where two headings read alike, the source gives them in different places.
Key:
[1] = Pharmacokinetics following oral administration in the rat; assay type: in vivo
Protocol: Investigation of Pharmacokinetics of Compounds of General Formula (I) Following Oral Administration in the Rat
Rats were weighed on the day of dosing.
The test material was prepared as a 0.3 mg/mL suspension in 1% carboxy-methyl-cellulose (CMC).
Three groups of 3 rats were dosed as follows:
Doses were administered as a single oral dose using a gavage tube at a constant dose volume of 10 mL/kg.
At each sampling time point blood samples (approximately 0.3 mL) was taken from a catheter inserted into a lateral tail vein prior to the start of the experiment. The final blood sample (approximately 2 mL) from each animal was taken by cardiac puncture under isoflurane anaesthesia following which the animal was killed by exsanguination. Blood samples were taken into individual heparinised containers. Blood samples were collected at the following times post-dose:
Following collection, the blood samples were centrifuged (approximately 10,000×g, 2 min at 4° C.) and the plasma stored as one aliquot at approximately −20° C. pending analysis of drug concentrations by LC-MS/MS.
The plasma samples were analysed for test material concentrations at BioDynamics using an LC-MS/MS method developed at BioDynamics.

[2] = tested on: DK-PGD2-induced blood eosinophilia; assay: Inhibition of DK-PGD2-induced blood eosinophilia in rats; assay type: in vivo, rat; details: female rats, oral dosing 30 min before 10 μg DK-PGD2 intracardiac; ED50 from dose-response curve; the values are: ED50
Protocol: Evaluation of Compounds of General Formula (I) as Inhibitors of 13,14-dihydro-15-keto prostaglandin D2 (DK-PGD2)-Induced Blood Eosinophilia in Rats
The test compound was dissolved in DMSO and diluted with water to give a final dosing volume of 2 ml/kg.
Female rats (175-250 g; UH colony) were dosed orally with test compound (or vehicle).
30 min after dosing all animals were anaesthetised with isoflurane.
Following induction of anaesthesia, animals receive an intracardiac injection of 10 μg DK-PGD2 in 0.3 ml heparinised (10 U/ml) saline. Control animals received an injection of 0.3 ml heparinised saline.
60 min after the intracardiac injection, animals were injected with an overdose of pentobarbitone sodium and a blood sample was taken (into heparin) by cardiac puncture while the rat was anaesthetised but not dead.
An aliquot of blood (100 μl) was added to Turk's solution and the total leukocyte count determined with a haemocytometer.
A further aliquot of blood (500 μl) was mixed with an equal volume of 4% Dextran (mw 500,000) and the erythrocytes allowed to settle. A cytospin preparation was made from the resulting leukocyte rich fraction.
Cytospin preparations were fixed with methanol (5 min) and stained with May-Grunwald (5 min) and Giemsa (15 min) stains. Finally cytospins were washed in phosphate buffer (pH6.8) and air dried.
Differential leukocyte counts were obtained from the cytospin preparations.
Blood eosinophil numbers were determined from the total leukocyte count and the percentage eosinophils (differential count).
Because it was impractical to generate sufficient data in any given experiment, data were obtained over a number of replicate experiments. Data from these replicate experiments were pooled, to provide at least 5 animals in each group and a dose-response curve fitted following a significance test (Mann Whitney) to determine whether or not DK-PGD2 caused a significant increase in blood eosinophils (GraphPad, Prism). A difference between groups was taken to be significant when P<0.05. ED50 values were calculated from the dose-response curve.

[3] = tested on: PGD2 induced eosinophil shape change; assay: Human whole blood eosinophil shape change assay; assay type: cell-based; details: Homo sapiens, Eosinophil
Procedure, shortened: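 Compound added to human whole blood and incubated 15 min at 37° C., 5% CO2, before cell fixation and red-cell lysis. Leukocytes analysed by FACS, eosinophils gated by autofluorescence, 2000 events per sample, triplicate; read-out is inhibition of PGD2-induced eosinophil shape change.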

[4] = rat, 3 mg/kg p.o, individual male animals, 3 mg/kg

Cc1c(Cc2ccc(S(C)(=O)=O)cc2)c2cc(F)ccc2n1CC(=O)O [Compound B, [5-Fluoro-3-(4-methanesulfonyl-benzyl)-2-methyl-indol-1-yl]-acetic acid, reference compound]
concentration at 0.25 h ([1]; male, rat, plasma, po, 3 mg/kg, rat, 3 mg/kg oral, 0.25 h, individual male animals, read-out: Concentration in Blood): 91.8 ng/mL
concentration at 0.25 h ([1]; male, rat, plasma, po, 3 mg/kg, rat, 3 mg/kg oral, 0.25 h, mean, read-out: Concentration in Blood, Mean): 87.6 ng/mL
concentration at 0.5 h ([1]; male, rat, plasma, po, 3 mg/kg, rat, 3 mg/kg oral, 0.5 h, individual male animals, read-out: Concentration in Blood): 121 ng/mL
concentration at 0.5 h ([1]; male, rat, plasma, po, 3 mg/kg, rat, 3 mg/kg oral, 0.5 h, mean, read-out: Concentration in Blood, Mean): 140 ng/mL
concentration at 1 h ([1]; male, rat, plasma, po, 3 mg/kg, rat, 3 mg/kg oral, 1 h, individual male animals, read-out: Concentration in Blood): 252 ng/mL
concentration at 1 h ([1]; male, rat, plasma, po, 3 mg/kg, rat, 3 mg/kg oral, 1 h, mean, read-out: Concentration in Blood, Mean): 255 ng/mL
concentration at 2 h ([1]; male, rat, plasma, po, 3 mg/kg, rat, 3 mg/kg oral, 2 h, mean, read-out: Concentration in Blood, Mean): 381 ng/mL
concentration at 4 h ([1]; male, rat, plasma, po, 3 mg/kg, rat, 3 mg/kg oral, 4 h, mean, read-out: Concentration in Blood, Mean): 283 ng/mL
concentration at 6 h ([1]; male, rat, plasma, po, 3 mg/kg, rat, 3 mg/kg oral, 6 h, mean, read-out: Concentration in Blood, Mean): 182 ng/mL
concentration at 8 h ([1]; male, rat, plasma, po, 3 mg/kg, rat, 3 mg/kg oral, 8 h, mean, read-out: Concentration in Blood, Mean): 114 ng/mL
concentration at 12 h ([1]; male, rat, plasma, po, 3 mg/kg, rat, 3 mg/kg oral, 12 h, mean, read-out: Concentration in Blood, Mean): 27.3 ng/mL
concentration at 24 h ([1]; male, rat, plasma, po, 3 mg/kg, rat, 3 mg/kg oral, 24 h, individual male animals, read-out: Concentration in Blood): 0 ng/mL
concentration at 24 h ([1]; male, rat, plasma, po, 3 mg/kg, rat, 3 mg/kg oral, 24 h, mean, read-out: Concentration in Blood, Mean): 0 ng/mL
Tmax ([1]; male, rat, plasma, po, 3 mg/kg, rat, 3 mg/kg p.o, individual male animals, read-out: Tmax): 2 h
half-life ([1]; male, rat, plasma, po, 3 mg/kg, rat, 3 mg/kg p.o, individual male animals, read-out: T½ (converted)): 3.41 h
AUC(0-inf) ([1]; male, rat, plasma, po, 3 mg/kg, rat, 3 mg/kg p.o, mean, summary without unit (Table 12), read-out: AUCinf (mean)): 2200 ng·h/mL
Cmax ([1]; male, rat, plasma, po, 3 mg/kg, rat, 3 mg/kg p.o, mean, summary without unit (Table 12), read-out: Cmax (mean)): 381 ng/mL
AUC(0-inf) ([1]; male, rat, plasma, po, 3 mg/kg, rat, 3 mg/kg p.o, mean, read-out: AUCinf, Mean): 2200 ng·h/mL
Cmax ([1]; male, rat, plasma, po, 3 mg/kg, rat, 3 mg/kg p.o, mean, read-out: Cmax, Mean): 381 ng/mL
Tmax ([1]; male, rat, plasma, po, 3 mg/kg, rat, 3 mg/kg p.o, mean, read-out: Tmax, Mean): 2 h
half-life ([1]; male, rat, plasma, po, 3 mg/kg, rat, 3 mg/kg p.o, mean, read-out: T½, Mean (converted)): 2.4 h
Fold over IC50 at 24 h ([1]; mean blood concentration at 24 h (rat, 3 mg/kg p.o.) divided by whole blood IC50 in ng/ml): 0
Concentration in Blood ([1]; rat, 3 mg/kg oral, 0.25 h, individual male animals, 3 mg/kg): 113.6 ng/mL and 57.3 ng/mL
Concentration in Blood ([1]; rat, 3 mg/kg oral, 0.5 h, individual male animals, 3 mg/kg): 165.7 ng/mL and 132.1 ng/mL
Concentration in Blood ([1]; rat, 3 mg/kg oral, 1 h, individual male animals, 3 mg/kg): 295.1 ng/mL and 217.5 ng/mL
Concentration in Blood ([1]; rat, 3 mg/kg oral, 2 h, individual male animals, 3 mg/kg): 349.9 ng/mL and 536.9 ng/mL and 256.2 ng/mL
Concentration in Blood ([1]; rat, 3 mg/kg oral, 4 h, individual male animals, 3 mg/kg): 179.4 ng/mL and 485.2 ng/mL and 184.9 ng/mL
Concentration in Blood ([1]; rat, 3 mg/kg oral, 6 h, individual male animals, 3 mg/kg): 128.3 ng/mL and 292.2 ng/mL and 125.8 ng/mL
Concentration in Blood ([1]; rat, 3 mg/kg oral, 8 h, individual male animals, 3 mg/kg): 72.1 ng/mL and 184.5 ng/mL and 84.7 ng/mL
Concentration in Blood ([1]; rat, 3 mg/kg oral, 12 h, individual male animals, 3 mg/kg): 36.5 ng/mL and 31.0 ng/mL and 14.5 ng/mL
Concentration in Blood ([1]; rat, 3 mg/kg oral, 24 h, individual male animals): 0 ng/mL
AUCinf [1, 4]: 1831.4 ng·h/mL and 3256.1 ng·h/mL and 1505.1 ng·h/mL
Cmax [1, 4]: 349.9 ng/mL and 536.9 ng/mL and 256.2 ng/mL
T½ [1, 4]: 1.80 h and 1.86 h
AUCinf (mean) ([1]; rat, 3 mg/kg p.o, mean, summary without unit (Table 12), 3 mg/kg, in ng·h/mL): 2198
Potency in inhibition of DK-PGD2-induced blood eosinophilia [2]: 17 mg/kg
IC50 ([3]; 10 nm PGD2-induced eosinophil shape change, human whole blood, read-out: Whole Blood IC50): 8 nM
IC50 ([3]; Table 12 summary of whole blood eosinophil shape change IC50, read-out: IC50 (μmol)): 8 nM
IC50 ([3]; whole blood eosinophil shape change IC50 converted to ng/mL, read-out: IC50): 3 ng/mL
IC50 ([3]; read-out: IC50 in the whole blood eosinophil shape change assay): 8 nM

From patent publication US7999119B2, “Compounds having CRTH2 antagonist activity” (Oxagen Limited, priority 2006, dated 2011)
